Assay results reported in PubChem BioAssay (NCI).
≈ marks a conversion by molar mass, not a printed value. Where “and” joins values, the source holds several entries; their conditions need not be identical. Equal entries are not always repeated.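 Growth conditions: 96-well plates. Treatment: test compound, 48 hours, 5 concentrations. Analysis: linear interpolation between bracketing concentrations; unreached endpoints set to highest concentration. GI50 is the concentration that inhibits growth by half. TGI: concentration producing complete growth inhibition.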

Experiments:
Assay in all cases: DTP human tumour cell line panel, 48 h
SF-539 CNS = system: SF-539 CNS
HL-60(TB) leukemia = system: HL-60(TB) leukemia
HOP-92 NSCLC = system: HOP-92 NSCLC
SNB-75 CNS = system: SNB-75 CNS
PC-3 prostate = system: PC-3 prostate
DU-145 prostate = system: DU-145 prostate
NCI/ADR-RES ovarian = system: NCI/ADR-RES ovarian
MCF7 breast = system: MCF7 breast
HCC-2998 colon = system: HCC-2998 colon
MDA-N = system: MDA-N

SMILES	TGI (SF-539 CNS)	TGI (HL-60(TB) leukemia)	TGI (HOP-92 NSCLC) [µM]	TGI (SNB-75 CNS)	TGI (PC-3 prostate)	TGI (DU-145 prostate)	TGI (NCI/ADR-RES ovarian)	TGI (MCF7 breast)	TGI (HCC-2998 colon)	TGI (MDA-N)	GI50 (PC-3 prostate)	GI50 (SF-539 CNS)	GI50 (HOP-92 NSCLC) [µM]	GI50 (DU-145 prostate)	GI50 (NCI/ADR-RES ovarian)	GI50 (MCF7 breast)	GI50 (HCC-2998 colon) [µM]	GI50 (HL-60(TB) leukemia)	GI50 (SNB-75 CNS)	GI50 (MDA-N) [µg/mL]
N#CC(c1ccccc1)N1CCCN(C(C#N)c2ccccc2)C1c1ccccc1O (stereo not drawn)	> 100 µM	> 100 µM	> 100	> 100 µM	> 100 µM	> 100 µM	> 100 µM	> 100 µM	> 100 µM	> 100 µM										
O=[n+]1c2c(n([O-])c3ccccc31)-c1cccc3cccc-2c13		> 100 µM	> 100	94.7 µM	> 100 µM	> 100 µM	> 100 µM	> 100 µM	> 100 µM	> 100 µM										
O=[N+]([O-])c1ccc2c(c1)c(N=NC(=S)NC1CCCCC1)c(O)n2CN1CCOCC1	25.4 µM	17.2 µM	12.9	24.2 µM	19 µM	26.8 µM	18.7 µM	17.4 µM	17.6 µM	20 µM										
CCC(C)C1NC(=O)C2CCCN2C(=O)C(CC2CO2)OC(=O)CCNC(=O)C(C)N(C)C(=O)C(C(C)C)N(C)C1=O (stereo not drawn)	> 100 µM		> 100		> 100 µM	> 100 µM	> 100 µM	> 100 µM	> 100 µM											
COC(=O)C1C(C)N1C (stereo not drawn)	> 100 µM	> 100 µM	> 100	> 100 µM					> 100 µM											
Cc1cc(O)c(C(C)C)cc1CN1CCCCC1	> 100 µM	> 100 µM	> 100	> 100 µM	> 100 µM	> 100 µM	> 100 µM	> 100 µM	> 100 µM	> 100 µM										
CC[C@@]1(O)C(=O)OCc2c1cc1n(c2=O)Cc2c-1nc1ccc(O)cc1c2CC[Si](C)(C)C		< 0.001 µM	0.0308		> 100 µM	0.00129 µM	1.84 µM and 1.56 µM		0.0641 µM and 0.0601 µM		0.0525 µM									
O=C(O)C(CSC(c1ccccc1)(c1ccccc1)c1ccccc1)N=Cc1cccs1 (stereo not drawn)	9.21 µM	26.6 µM	> 84	> 79.5 µM	> 42.4 µM	> 38.1 µM	63.8 µM	> 56 µM	27.7 µM	1.94 µM										
COc1ccc(N=c2ssc(C(=S)Nc3ccc(OC)cc3)c2S)cc1	> 100 µM	> 100 µM	> 100	> 100 µM	> 100 µM	> 100 µM	> 100 µM	> 100 µM	84.6 µM	> 100 µM										
COC(=O)C1C(O)CCC2CN3CCc4c([nH]c5cccc(OC)c45)C3CC21 (stereo not drawn)	> 100 µM	> 100 µM	> 100	> 100 µM	> 100 µM	> 100 µM		> 100 µM	> 100 µM	> 100 µM										
CCOC(=O)C1CCn2c(nc3c2c(=O)n(C)c(=O)n3C)S1 (stereo not drawn)	> 100 µM	> 100 µM		> 100 µM																
C[C@]12CCC(=O)C=C1CC[C@@H]1[C@@H]2[C@@H](O)C[C@@]2(C)[C@H]1CC[C@]2(O)C(=O)CO	> 100 µM	> 100 µM	> 100	> 100 µM	> 100 µM	> 100 µM	> 100 µM	> 100 µM	> 100 µM	> 100 µM										
O=C1c2cc3c(cc2-c2c1c1ccc(Cl)cc1c(=O)n2C[C@H](O)[C@@H](O)[C@H](O)CO)OCO3	0.0602 µM		0.666		> 100 µM	> 100 µM	1.91 µM	0.178 µM	0.479 µM		0.128 µM	0.016 µM	0.069	0.0374 µM	0.0335 µM	< 0.01 µM	0.0638			
CC1(C)CCC2(C(=O)OC3OC(CO)C(O)C(O)C3O)CCC3(C)C(=CCC4C5(C)CCC(OC6OC(CO)C(O)C(O)C6O)C(C)(C)C5CCC43C)C2C1 (stereo not drawn)	12.8 µM	16.4 µM	> 25	> 25 µM	> 25 µM	> 25 µM		> 25 µM	9.83 µM											
N[C@H]1CCN(c2c(F)cc3c(=O)c(C(=O)O)cn4c3c2Oc2cc3c(ccc5ccccc53)cc2-4)C1	10.6 µM	> 100 µM	6.29		6.34 µM	> 100 µM	> 100 µM	> 100 µM	6.82 µM	> 100 µM										
NCCNc1nc(N2CCCC2)c2nc(Cl)c(NCc3ccccc3)nc2n1	3.79 µM	3.99 µM	6.1	3.49 µM	7.62 µM	3.55 µM	33.1 µM	3.31 µM	2.88 µM	3.1 µM										
C/C(=N\NC(=O)c1cccnc1)c1cccc(/C(C)=N/NC(=O)c2cccnc2)n1	13.6 µM	> 100 µM	59.1	42.5 µM					> 100 µM				7.41				2.17	1.67 µM	10.3 µM	
CC1(C)CC(=O)C2=C(C1)NC(SSC1=C(C#N)C(c3ccc(F)cc3)C3=C(CC(C)(C)CC3=O)N1)=C(C#N)C2c1ccc(F)cc1 (stereo not drawn)	43.5 µg/mL	> 150 µg/mL		> 150 µg/mL	48 µg/mL	15 µg/mL	128 µg/mL	72.3 µg/mL		48.4 µg/mL	27.1 µg/mL	23.4 µg/mL		15 µg/mL	40.9 µg/mL	32.3 µg/mL		47.1 µg/mL	41.3 µg/mL	27.2 (≈ 41.5 µM)
CC(Sc1ccccc1)C(CO)(CO)[N+](=O)[O-] (stereo not drawn)	31 µM	16 µM		35.4 µM					31.5 µM											
COc1ccc(/C=C(\C#N)c2nc(N)nc(N3N=C(C)CC3(C)C)n2)c(O)c1	29.1 µM	46.8 µM	58.5		> 100 µM	37.7 µM	97.3 µM	45.5 µM	38.2 µM											
C[C@]12CC[C@@H]3c4ccccc4CC[C@H]3[C@@H]1CC[C@@H]2O	> 100 µM			> 100 µM					> 100 µM											
O=S(=O)(O)c1cccc2c(N=Nc3c(O)ccc4ccccc34)cccc12			> 100	> 100 µM	> 100 µM	> 100 µM	> 100 µM			> 100 µM										
CN1C2CCC1C(C(O)c1ccccc1[N+](=O)[O-])C(=O)C2 (stereo not drawn)	80.4 µM	> 100 µM			> 100 µM	86.8 µM	91.9 µM	> 100 µM	> 100 µM	75.7 µM										
Nc1nc(N)c2c(n1)NC(c1ccccc1)CC(/C=C/c1ccc(Cl)cc1)=N2 (stereo not drawn)	31.2 µM	28.2 µM	18.2	33.9 µM	22 µM	24.4 µM	11.3 µM	16 µM		24.4 µM										
O=S1(=O)OC(c2ccc(O)cc2)(c2ccc(O)cc2)c2ccccc21	> 100 µM	> 100 µM	> 100	> 100 µM	> 100 µM	> 100 µM	> 100 µM	> 100 µM	> 100 µM											
